Reference: patent US20260207600A1, “METHODS OF TREATMENT WITH MYOSIN MODULATOR” (MYOKARDIA, INC., priority 2019, published 2026)

Legend:
CYP2C19 = CYP2C19 (Homo sapiens, UniProt P33261); assay: In vitro contribution of CYP enzymes to mavacamten metabolism; assay type: in vitro ADME
CYP3A4/5 = assay: as above; assay type: in vitro ADME
[1] = test system: participants with symptomatic oHCM; assay: EXPLORER-HCM Phase 3 double blind, randomized, placebo controlled study; assay type: in vivo, human
From the text: A subset of participants consented to participate in a CMR substudy at selected sites. Randomization was stratified according to NYHA functional classification (II or III), current treatment with β-blocker (yes or no), planned type of ergometer used during the study (treadmill or exercise bicycle), and consent for the CMR substudy (yes or no).
The study included 3 periods carried out according to the following design:
1) Screening period (Day −35 to Day −1): Participants will undergo a variety of general, cardiopulmonary, laboratory, symptom, and PRO assessments over 1 to 2 days in order to assess eligibility. Key Screening tests include electrocardiogram (ECG); transthoracic echocardiography (TTE) conducted at rest, with Valsalva maneuver, and post-exercise; as well as cardiopulmonary exercise testing (CPET). The following screening assessments may be repeated, as long as within the 35-days screening window: blood tests, ECG, and/or TTE. Repeat assessments are allowed if central core labs require a repeat submission due to quality and in order to better assess inclusion/exclusion values. Participants who screen fail may be considered for rescreening based on the investigator's discretion, taking into consideration the reason(s) for screen fail. One attempt at rescreening will be allowed, and all procedures must be repeated.
2) Double-blind treatment period (Day 1 [randomization] to Week 30/end of treatment [EOT]): The double-blind treatment period will include a two-step dose titration scheme designed to achieve safe and effective dosing for each participant based on their own response parameters. […] Subsequently, assessments including ECG, PK (trough plasma concentrations), and TTE will be performed at each of 7 study visits, beginning at Week 4, and read by core laboratories. At Week 8 and Week 14, the dose may be increased, decreased, or remain unchanged based upon results of Week 6 and Week 12 assessments, respectively, and based primarily on measurements of provoked left ventricular outflow tract (LVOT) gradient and bounded by a target plasma concentration (PK) range and clinical tolerability (LVEF). At Week 8, the dose may be increased to a maximum daily dose of 10 mg (ie, increase from 5 mg QD to 10 mg QD), and at Week 14 to a maximum daily dose of 15 mg (ie, increase from 10 mg QD to 15 mg QD). Dose increases are designed to be step wise and are not allowed to skip doses (eg, from 5 mg to 15 mg).
At Week 30/EOT, participants will complete CPET and post-exercise TTE. For any participants permanently discontinuing treatment prior to Week 30, an early termination (ET) visit should be conducted as soon as possible, including CPET and post-exercise TTE. Participants with ET will also be encouraged to complete all remaining study visits and assessments, including the Week 30 visit.
3) Posttreatment follow-up period (Week 30/EOT to Week 38/end of study [EOS]): When double-blind treatment ends at Week 30, participants will be contacted by phone at Week 34 and return to the site at Week 38 for an EOS visit. At the EOS visit, specified assessments will be repeated. This posttreatment follow-up period applies only to participants who are receiving study drug after Week 22.
To maintain safety throughout the double-blind treatment period, a clinic visit will occur every 2 to 4 weeks, beginning at Week 4 for an initial evaluation of clinical tolerability and safety. Clinic visits will include but are not limited to clinical evaluation (symptoms, PRO evaluations, adverse event [AE]/serious adverse event [SAE] assessment), ECGs, PK sample, TTEs, and laboratory assessments. Results of TTE performed by study site sonographers at each scheduled visit following randomization should be kept blinded to the investigator and other study site personnel. […]

[2] = test system: subjects with obstructive HCM; conditions: human, in vivo; cited from earlier work
[3] = test system: isolated adult rat ventricular myocytes; assay: Counteraction of mavacamten effects by isoproterenol in isolated myocytes in vitro; assay type: cell-based
From the text: Additional supportive measures, e.g., intravenous volume supplementation and/or the use of arterial vasoconstrictor agents (a adrenergic agonists) may complement the use of a β adrenergic agonist.

[4] = Mavacamten arm (n = 123), baseline to Week 30
[5] = Mavacamten arm, defined as NYHA Class I and all LVOT gradients <30 mmHg
[6] = change from baseline to Week 30, p <0.0001

Chain of CYP2C19 (P33261 whole entry): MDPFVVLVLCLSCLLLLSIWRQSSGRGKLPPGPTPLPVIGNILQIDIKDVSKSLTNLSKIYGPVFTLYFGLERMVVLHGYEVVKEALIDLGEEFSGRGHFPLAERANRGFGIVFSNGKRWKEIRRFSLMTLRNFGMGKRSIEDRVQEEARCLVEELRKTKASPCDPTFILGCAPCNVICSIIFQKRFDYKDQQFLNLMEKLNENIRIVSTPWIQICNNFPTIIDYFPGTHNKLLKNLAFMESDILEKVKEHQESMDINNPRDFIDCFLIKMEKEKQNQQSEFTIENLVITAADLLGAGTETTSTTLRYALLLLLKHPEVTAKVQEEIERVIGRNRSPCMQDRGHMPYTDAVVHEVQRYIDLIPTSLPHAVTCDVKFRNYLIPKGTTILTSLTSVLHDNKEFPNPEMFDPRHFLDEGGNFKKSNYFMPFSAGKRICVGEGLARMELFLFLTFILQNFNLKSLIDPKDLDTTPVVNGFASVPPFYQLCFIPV

CC(C)n1c(=O)cc(N[C@@H](C)c2ccccc2)[nH]c1=O [mavacamten, (S)-3-Isopropyl-6-((1-phenylethyl)amino)pyrimidine-2, 4(1H,3H)-dione]
percent contribution to the metabolism of mavacamten (CYP2C19): 74% | percent contribution to the metabolism of mavacamten (CYP3A4/5): 18% | subjects with severe TEAEs ([1]; 7 subjects, placebo 10.2%): 5.7% | Response Type 1 (pVO2 ≥1.5 ml/kg/min and NYHA improved ≥1), n (%) ([1]; Mavacamten (n = 123)): 41 (33.3) n (%) | Response Type 2 (pVO2 ≥3.0 ml/kg/min and no worsening NYHA), n (%) ([1]; Mavacamten (n = 123)): 29 (23.6) n (%) | pVO2 ≥3.0 and NYHA ≥1, n (%) ([1]; Mavacamten (n = 123)): 25 (20.3) n (%) | Met Composite Functional Response, either type, n (%) ([1]; Mavacamten (n = 123), Week 30): 45 (36.6) n (%) | Absence of MR (mitral regurgitation), (%) ([1]; Mavacamten arm): (9.0) % | Absence of MR (mitral regurgitation), n/assessible ([1]; Mavacamten arm): 10/111 | Absence of SAM (systolic anterior motion of mitral valve), (%) ([1]; Mavacamten arm): (80.9) % | Absence of SAM (systolic anterior motion of mitral valve), n/assessible ([1]; Mavacamten arm): 76/94 | participants with a temporary discontinuation associated with reduced ejection fraction ([1]; Mavacamten arm): 3 | HCMSQ-SoB score, change from baseline, mean (SD) [1, 4]: −2.82 (2.7) | KCCQ-CSS, change from baseline, mean (SD) [1, 4]: 13.6 (14.4) | KCCQ-OSS, change from baseline, mean (SD) [1, 4]: 14.87 (15.8) | KCCQ-total symptom score, change from baseline, mean (SD) [1, 4]: 12.44 (15.0) | NYHA improved ≥1 Class, n (%) [1, 4]: 80 (65) n (%) | Post-exercise LVOT peak gradient, change from baseline, mean (SD) [1, 4]: −47.2 (40.3) mmHg | pVO2, change from baseline, mean (SD) [1, 4]: 1.4 (3.1) mL/kg/min | Post-exercise LVOT peak gradient < 30 mmHg, (%) ([1]; Mavacamten arm, Week 30): (56.6) % | Post-exercise LVOT peak gradient < 30 mmHg, n/assessible ([1]; Mavacamten arm, Week 30): 64/113 | Post-exercise LVOT peak gradient < 50 mmHg, (%) ([1]; Mavacamten arm, Week 30): (74.3) % | Post-exercise LVOT peak gradient < 50 mmHg, n/assessible ([1]; Mavacamten arm, Week 30): 75/101 | Complete Response, (%) [1, 5]: (27.4) % | Complete Response, n/assessible [1, 5]: 32/117 | Met Composite Functional Response, either type ([1]; Mavacamten vs Placebo): 19.4 | Response Type 1 ([1]; Mavacamten vs Placebo): 19.3 | Response Type 2 ([1]; Mavacamten vs Placebo): 12.6 | pVO2 ≥3.0 and NYHA ≥1 ([1]; Mavacamten vs Placebo): 12.5 | Complete Response, Mava vs Placebo Difference (95% CI) ([1]; NYHA Class I and all LVOT gradients <30 mmHg, p <0.0001): 26.6 (18.3, 34.8) | NT-proBNP Mava vs Placebo Model Est RR ([1]; Week 30, 95% CI (0.169, 0.241), p <0.0001): 0.202 | hs-cTnI Mava vs Placebo Model Est RR ([1]; Week 30, 95% CI (0.500, 0.693), p <0.0001): 0.589 | Post-exercise LVOT peak gradient < 30 mmHg, Mava vs Placebo Difference (95% CI) ([1]; Week 30, p <0.0001): 49.6 (39.3, 59.8) | Post-exercise LVOT peak gradient < 50 mmHg, Mava vs Placebo Difference (95% CI) ([1]; Week 30, p <0.0001): 53.5 (42.0. 65.0) | NYHA improved ≥1 Class, Mavacamten vs Placebo Difference (95% CI) ([1]; baseline to Week 30, p <0.0001): 33.8 (22.1, 45.4) <0.0001 | KCCQ-total symptom score, Mavacamten vs Placebo Difference (95% CI) ([1]; change from baseline to Week 30, p 0.0002): 7.60 (3.68, 11.52) 0.0002 | pVO2, Mavacamten vs Placebo Difference (95% CI) ([1]; change from baseline to Week 30, p 0.0006): 1.35 (0.580, 2.116) 0.0006 mL/kg/min | HCMSQ-SoB score, Mavacamten vs Placebo Difference (95% CI) [1, 6]: −1.8 (−2.402, −1.196) <0.0001 | KCCQ-CSS, Mavacamten vs Placebo Difference (95% CI) [1, 6]: 9.1 (5.46, 12.66) <0.0001 | KCCQ-OSS, Mavacamten vs Placebo Difference (95% CI) [1, 6]: 9.12 (5.46, 12.80) <0.0001 | Post-exercise LVOT peak gradient, Mavacamten vs Placebo Difference (95% CI) [1, 6]: −35.5 (−43.1, −27.9) <0.0001 mmHg | Tolerability ([1]; doses ranging from 2.5 to 15 mg): well tolerated | patients meeting the primary efficacy endpoint (composite functional response) ([1]; intent-to-treat, 45 of the 123 patients): 36.6% | permanent treatment discontinuations due to adverse events ([1]; on mavacamten (atrial fibrillation, syncope)): 2 | Absence of MR, Mava vs Placebo Difference (95% CI) ([1]; p 0.0006): 9.0 (3.7, 14.3) | Absence of SAM, Mava vs Placebo Difference (95% CI) ([1]; p <0.0001): 46.9 (34.5, 59.2) | temporary discontinuations ([1]; patients on mavacamten (all at a 5 mg dose)): 8 | patients achieving a complete response (NYHA 1 and all LVOT gradients below 30 mmHg) ([1]; placebo 1%): 27% | patients with cardiac SAEs ([1]; placebo 4): 4 | patients achieving a post-exercise LVOT peak gradient below 30 mmHg ([1]; placebo 7%): 57% | number of SAEs ([1]; placebo 20): 12 | patients achieving NYHA class I status ([1]; placebo 21%): 65% | subjects experiencing SAEs ([1]; through week 30, 10 subjects): 8.1% | Obstruction of the left ventricular outflow tract [2]: reduced or eliminated the obstruction of the left ventricular outflow tract | Reversal of pharmacologic effects by β adrenergic agonist [3]: can be counteracted by β adrenergic agonists
